Article PMC7676912, “Guanosine Tetraphosphate Has a Similar Affinity for Each of Its Two Binding Sites on Escherichia coli RNA Polymerase” (Frontiers in Microbiology, 2020)

Legend:
Assay in all cases: DRaCALA, one-site saturation fit
Assay type in all cases: binding
[1] = target: T1, RNAPΔω with DksA (Site 2 only) (Escherichia coli, UniProt P0A8T7+P0ABS1); details: read-out: Kd,app
T1 construct: gene rpoC; with DNA-directed RNA polymerase subunit alpha; DNA-directed RNA polymerase subunit beta

[2] = target: T2, wild-type RNAP with DksA (Sites 1 and 2) (Escherichia coli, UniProt P0A800+P0A8T7+P0ABS1, P0ABS1:R129A)
T2 construct: gene rpoZ; recombinant core RNAP saturated with omega plus saturating purified DksA; with DNA-directed RNA polymerase subunit alpha; DNA-directed RNA polymerase subunit beta

[3] = target: T3, wild-type RNAP-TraR complex (Escherichia coli, UniProt P0A800+P0A8T7); details: Site 1; TraR present; labelled compound [32P]-ppGpp; unreliable (printed 'at least'; curve did not plateau); non-equilibrium assay
T3 construct: gene rpoZ; recombinant core RNAP saturated with omega plus purified TraR (encoded by F element); ppGpp at Site 1; with DNA-directed RNA polymerase subunit alpha; DNA-directed RNA polymerase subunit beta; Protein TraR

[4] = target: T4, wild-type RNAP (without DksA; Site 1 only) (Escherichia coli, UniProt P0A800+P0A8T7, P0A800:DEL2-5)
T4 construct: gene rpoZ; recombinant core RNAP, alpha, beta, beta' from one plasmid and omega from a second plasmid, omega saturating; with DNA-directed RNA polymerase subunit alpha; DNA-directed RNA polymerase subunit beta

[5] = target: T5, wild-type RNAP with DksA (Sites 1 and 2) (Escherichia coli, UniProt P0A800+P0A8T7+P0ABS1, P0ABS1:K98A)
T5 construct: gene rpoZ; recombinant core RNAP saturated with omega plus saturating purified DksA; with DNA-directed RNA polymerase subunit alpha; DNA-directed RNA polymerase subunit beta

[6] = target: T6, wild-type RNAP (without DksA; Site 1 only) (Escherichia coli, UniProt P0A800+P0A8T7); details: read-out: Kd,app
T6 construct: gene rpoZ; recombinant core RNAP, alpha, beta, beta' from one plasmid and omega from a second plasmid, omega saturating; with DNA-directed RNA polymerase subunit alpha; DNA-directed RNA polymerase subunit beta

[7] = target: T7, wild-type RNAP with DksA (Sites 1 and 2) (Escherichia coli, UniProt P0A800+P0A8T7+P0ABS1); details: read-out: Kd,app
T7 construct: gene rpoZ; recombinant core RNAP saturated with omega plus saturating purified DksA; with DNA-directed RNA polymerase subunit alpha; DNA-directed RNA polymerase subunit beta

[8] = target: T8, RNAPΔω (no DksA; lacking Sites 1 and 2) (Escherichia coli, UniProt P0A8T7); details: read-out: Kd,app
T8 construct: gene rpoC; RNAP lacking omega, purified from a ΔrpoZ strain, no DksA added; with DNA-directed RNA polymerase subunit alpha; DNA-directed RNA polymerase subunit beta

[9] = target: T9, wild-type RNAP-GreB complex (Escherichia coli, UniProt P0A800+P0A8T7); details: read-out: Kd,app
T9 construct: gene rpoZ; recombinant core RNAP saturated with omega plus purified GreB; ppGpp at Site 1; with DNA-directed RNA polymerase subunit alpha; DNA-directed RNA polymerase subunit beta; Transcription elongation factor GreB

Nc1nc2c(ncn2[C@@H]2O[C@H](COP(=O)(O)OP(=O)(O)O)[C@@H](OP(=O)(O)OP(=O)(O)O)[C@H]2O)c(=O)[nH]1 [ppGpp, guanosine 5'-diphosphate 3'-diphosphate]
Kd [1]: 7.9 ± 1.3 µM | Kd [2]: ~1.8 µM | Kd,app [3]: > 4.2 ± 0.6 µM | Kd [4]: > 100 µM | Kd [5]: ~1.3 µM | Kd [6]: 6.1 ± 1.3 µM | Kd [7]: 3.3 ± 1.2 µM | Kd [8]: > 100 µM | Kd [9]: ~6.4 µM
